Reference: PMC8793051 (ACS Omega, 2022)

Tests used:
SNB-75 = assay: NCI-60 SRB growth assay; assay type: cell-based, human
SK-MEL-28 = assay: NCI-60 SRB growth assay; assay type: cell-based, human
MALME-3M = assay: NCI-60 SRB growth assay; assay type: cell-based, human
T-47D = assay: NCI-60 SRB growth assay; assay type: cell-based, human
NIH3T3 = assay: MTT cytotoxicity assay; assay type: cell-based; conditions: Mus musculus, NIH3T3, 48 h
Hu Topo I = molecular target: T1, Hu Topo I (Homo sapiens, UniProt P11387); assay: Plasmid DNA relaxation assay
T1 sequence (P11387 1-765): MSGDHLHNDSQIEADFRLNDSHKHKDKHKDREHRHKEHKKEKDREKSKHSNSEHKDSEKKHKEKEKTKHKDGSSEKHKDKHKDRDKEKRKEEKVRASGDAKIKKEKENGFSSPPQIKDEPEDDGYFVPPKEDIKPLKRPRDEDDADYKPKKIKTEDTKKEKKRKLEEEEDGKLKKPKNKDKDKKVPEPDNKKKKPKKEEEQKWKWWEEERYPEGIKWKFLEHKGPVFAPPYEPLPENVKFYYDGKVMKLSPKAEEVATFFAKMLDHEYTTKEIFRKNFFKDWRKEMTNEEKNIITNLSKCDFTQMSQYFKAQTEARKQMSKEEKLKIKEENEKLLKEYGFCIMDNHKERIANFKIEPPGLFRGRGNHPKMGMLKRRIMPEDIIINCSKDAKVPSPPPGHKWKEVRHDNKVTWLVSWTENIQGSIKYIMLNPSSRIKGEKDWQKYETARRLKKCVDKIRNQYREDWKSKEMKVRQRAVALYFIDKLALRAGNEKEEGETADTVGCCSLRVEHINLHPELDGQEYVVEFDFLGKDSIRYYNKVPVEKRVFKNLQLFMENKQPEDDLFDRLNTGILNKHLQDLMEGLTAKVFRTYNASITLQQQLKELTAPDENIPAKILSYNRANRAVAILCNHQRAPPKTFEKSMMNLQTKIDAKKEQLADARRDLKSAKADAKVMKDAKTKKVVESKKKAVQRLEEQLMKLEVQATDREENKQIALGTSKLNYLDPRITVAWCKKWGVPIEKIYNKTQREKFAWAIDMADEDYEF

HOP-62 = assay: NCI-60 SRB growth assay; assay type: cell-based, human; conditions: HOP-62
[1] = system: oligo-2: d(CGATGTACATCG)2; assay: Fluorescence titration; assay type: binding; conditions: 20 °C, pH 7.2
MDA-MB-435 = assay: NCI-60 SRB growth assay; assay type: cell-based, human
OVCAR-8 = assay: NCI-60 SRB growth assay; assay type: cell-based, human; conditions: OVCAR-8
[2] = system: oligo-2: d(CGATGTACATCG)2; assay: UV thermal denaturation; assay type: binding
K-562 = assay: NCI-60 SRB growth assay; assay type: cell-based, human
OVCAR-3 = assay: NCI-60 SRB growth assay; assay type: cell-based, human
SK-MEL-5 = assay: NCI-60 SRB growth assay; assay type: cell-based, human
CAKI-1 = assay: NCI-60 SRB growth assay; assay type: cell-based, human
M14 = assay: NCI-60 SRB growth assay; assay type: cell-based, human
HL-60(TB) = assay: cells; conditions: Homo sapiens
HS 578T = assay: NCI-60 SRB growth assay; assay type: cell-based, human
SK-MEL-2 = assay: NCI-60 SRB growth assay; assay type: cell-based, human; conditions: SK-MEL-2
HCC-2998 = assay: NCI-60 SRB growth assay; assay type: cell-based, human
EKVX = assay: NCI-60 SRB growth assay; assay type: cell-based, human
A549/ATCC = assay: NCI-60 SRB growth assay; assay type: cell-based, human
NCI-H460 = assay: NCI-60 SRB growth assay; assay type: cell-based, human
PC-3 = assay: NCI-60 SRB growth assay; assay type: cell-based, human
SF-539 = assay: NCI-60 SRB growth assay; assay type: cell-based, human
BT-549 = assay: NCI-60 SRB growth assay; assay type: cell-based, human; conditions: BT-549

SMILES: CCCCN1CCN(c2ccc3[nH]c(-c4ccc5[nH]c(-c6ccc(OCC)c(OCC)c6)nc5c4)nc3c2)CC1 [12a, 5-(4-Butylpiperazin-1-yl)-2-(2-(3,4-diethoxyphenyl)-1H-benzo[d]imidazol-5-yl)-1H-benzo[d]imidazole]
- GI50 (SNB-75; Homo sapiens, SNB-75): 650 nM
- CC50 (SNB-75; Homo sapiens, SNB-75, read-out: LC50): 4540 nM
- TGI (SNB-75; SNB-75): 2010 nM
- GI50 (SK-MEL-28; Homo sapiens, SK-MEL-28): 1010 nM
- CC50 (SK-MEL-28; Homo sapiens, SK-MEL-28, read-out: LC50): 4860 nM
- TGI (SK-MEL-28; SK-MEL-28): 2220 nM
- GI50 (MALME-3M; Homo sapiens, Malme-3M): 190 nM
- TGI (MALME-3M; MALME-3M): 1180 nM
- GI50 (T-47D; Homo sapiens, T47D): 1360 nM
- CC50 (T-47D; Homo sapiens, T47D, read-out: LC50): > 100000 nM
- TGI (T-47D; T-47D): 7880 nM
- IC50 (NIH3T3): 8200 nM
- IC90 (Hu Topo I): 152000 nM
- TGI (HOP-62): 3400 nM
- GI50 (HOP-62; Homo sapiens): 1810 nM
- Ka binding affinity with oligo-2 [1]: 4 × 10^6 M^1
- GI50 (MDA-MB-435; Homo sapiens, MDA-MB-435): 1090 nM
- CC50 (MDA-MB-435; Homo sapiens, MDA-MB-435, read-out: LC50): 5240 nM
- TGI (MDA-MB-435; MDA-MB-435): 2390 nM
- GI50 (OVCAR-8; Homo sapiens): 890 nM
- TGI (OVCAR-8): 3060 nM
- ΔTm ([2]; r = 0.5): 1 °C
- Tm ([2]; r = 0.5, oligo 2.5 μM): 57.9 °C
- Tm ([2]; r = 1): 58.9 °C
- ΔTm ([2]; r = 1): 2 °C
- Tm ([2]; r = 1.5): 58.9 °C
- ΔTm ([2]; r = 1.5): 2 °C
- Tm ([2]; r = 2.0): 59.9 °C
- ΔTm ([2]; r = 2.0): 3 °C
- GI50 (K-562; Homo sapiens, K562): 520 nM
- CC50 (K-562; Homo sapiens, K562, read-out: LC50): 7530 nM
- TGI (K-562; K-562): 2270 nM
- GI50 (OVCAR-3; Homo sapiens, OVCAR-3): 350 nM
- CC50 (OVCAR-3; Homo sapiens, OVCAR-3, read-out: LC50): 2920 nM
- TGI (OVCAR-3; OVCAR-3): 850 nM
- GI50 (SK-MEL-5; Homo sapiens, SK-MEL-5): 1090 nM
- CC50 (SK-MEL-5; Homo sapiens, SK-MEL-5, read-out: LC50): 9220 nM
- TGI (SK-MEL-5; SK-MEL-5): 3160 nM
- TGI (CAKI-1; CAKI-1): 2520 nM
- GI50 (CAKI-1; Homo sapiens, CAKI-1): 1040 nM
- CC50 (CAKI-1; Homo sapiens, CAKI-1, read-out: LC50): 6120 nM
- GI50 (M14; Homo sapiens, M14): 310 nM
- CC50 (M14; Homo sapiens, M14, read-out: LC50): 4680 nM
- TGI (M14; M14): 1550 nM
- GI50 (HL-60(TB); HL-60): 700 nM
- CC50 (HL-60(TB); HL-60, read-out: LC50): 67900 nM
- TGI (HS 578T; HS578T): 3900 nM
- GI50 (HS 578T; Homo sapiens, Hs-578T): 1540 nM
- GI50 (SK-MEL-2; Homo sapiens): 1680 nM
- TGI (SK-MEL-2): 3660 nM
- TGI (HCC-2998; HCC-2998): 3220 nM
- GI50 (HCC-2998; Homo sapiens, HCC 2998): 1710 nM
- TGI (EKVX): 3180 nM
- GI50 (EKVX; Homo sapiens): 1380 nM
- TGI (A549/ATCC; A549/ATCC): 2930 nM
- GI50 (A549/ATCC; Homo sapiens, A549): 1180 nM
- GI50 (NCI-H460; Homo sapiens, NCI-H460): 530 nM
- CC50 (NCI-H460; Homo sapiens, NCI-H460, read-out: LC50): 5310 nM
- TGI (NCI-H460; NCI–H460): 1860 nM
- GI50 (PC-3; Homo sapiens, PC-3): 1080 nM
- CC50 (PC-3; Homo sapiens, PC-3, read-out: LC50): 5490 nM
- TGI (PC-3; PC-3): 2440 nM
- GI50 (SF-539; Homo sapiens, SF-539): 1260 nM
- CC50 (SF-539; Homo sapiens, SF-539, read-out: LC50): 5200 nM
- TGI (SF-539; SF-539): 2560 nM
- TGI (BT-549): 3070 nM
- GI50 (BT-549; Homo sapiens): 1550 nM
